In patent US9527850B2, “Benzyl piperidine compounds as lysophosphatidic acid (LPA) receptor antagonist” (Merck Patent GmbH, priority 2011, dated 2016):

molecular target: T1, LPA2 receptor (LPA2R) (Homo sapiens, UniProt Q9HBW0); assay: LPA2R-Calciumflux assay (intracellular calcium mobilisation, FLIPR); assay type: cell-based; conditions: U2OS cells recombinant expressing LPA2R; inhibition of LPA-induced Ca-flux; 10 concentrations 30 uM to 1 nM, 1% DMSO
T1 construct: expressed in transfected cells; host or cells: U2OS
Source text: The assay detects intra cellular calcium which is generated by cells upon activation of the LPA2 receptor by its ligand LPA. This transient calcium mobilization can be monitored using a commercial calcium detection kit (e.g. from Molecular Devices). The main component of such a kit is a dye, which becomes fluorescent when calcium is present—a transient fluorescence signal after laddition of a ligand to a test well are the result. Readers like the FLIPR (Molecular Devices) can be used to monitor such transient “Ca-flux” signals.
The signals are calculated according to peak maximum minus base line.
The assay is performed in microplates (384 wells per plate).
LPA2R-Calciumflux Assay Protocol
The assay is run according to the following procedure: • 50 uL seed cells (10000 cells/well in DMEM buffer) • Incubate 24 h at 37° C., 10% CO2 • aspirate medium • 50 uL add calcium dye 1×HBSS/HEPES buffer • incubate 1 h at 37° C. (“loading”) • equilibrate 10 min at RT • 5 uL add compounds in HEPES buffer • shake 10 sec. at 1000 rpm • incubate 15 min at RT • 20 uL add LPA (in the FLIPR Tetra) in Krebs-buffer/BSA & measurement
The cells are seeded in DMEM buffer (DMEM, 10% FCS, 10 mM HEPES, 1% Pen/Strep).
Dye loading is done in HBSS/HEPES buffer (100 mL 10×HBSS+20 mL 1M HEPES+880 mL water, pH 7.4)
The LPA is added in Krebs/BSA buffer (120 mM NaCl, 5 mM KCl, 0.62 mM MgSO4, 1.8 mM CaCl2, 10 mM HEPES, 6 mM D(+)-Glucose, 0.2% BSA, pH 7.4).
The compounds are pre-diluted in HEPES buffer (20 mM, pH 7.4), whereby the final DMSO content in the assay is kept at 1%. The compounds are pre-diluted in order to generate dose response series on the microplates. The dose response series consist of 10 concentrations for each compound from 30 uM final to 1 nM final. From all compound wells the resulting signals are referred to control wells (located on each plate besides the compound wells) in terms of % activity.
From these % activity values—along with the corresponding compound concentrations—IC50 values are fitted for each compound using standard fitting programs such as Graphpad Prism. Here the method “log(inhibitor) vs. response—Variable slope” is used.

T1 sequence (Q9HBW0 whole entry): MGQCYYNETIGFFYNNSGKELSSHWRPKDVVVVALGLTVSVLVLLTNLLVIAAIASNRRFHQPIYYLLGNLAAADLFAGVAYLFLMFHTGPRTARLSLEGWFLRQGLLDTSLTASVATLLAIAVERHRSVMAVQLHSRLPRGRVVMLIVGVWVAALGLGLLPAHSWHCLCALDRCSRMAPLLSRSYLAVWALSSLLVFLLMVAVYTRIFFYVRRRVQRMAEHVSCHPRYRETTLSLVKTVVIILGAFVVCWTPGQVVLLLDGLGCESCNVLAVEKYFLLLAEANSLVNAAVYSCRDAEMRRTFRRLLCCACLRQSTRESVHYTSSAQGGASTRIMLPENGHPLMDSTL

Row | SMILES | IC50
1 | Cc1ccc(CN2CCCCC2c2nc3ccccc3s2)cc1C (stereo not shown) [compound 52, 2-[1-(3,4-Dimethyl-benzyl)-piperidin-2-yl]-benzo-thiazole] | 5000 to 15000 nM
2 | Fc1ccc2[nH]c(C3CCCCN3Cc3ccc(Cl)cc3Cl)cc2c1 (stereo not shown) [compound 59, 2-[1-(2,4-Dichloro-benzyl)-piperidin-2-yl]-5-fluoro-1H-indole] | 5000 to 15000 nM
3 | Fc1ccc2[nH]c(C3CCCCN3Cc3ccc(Cl)c(Cl)c3)cc2c1 (stereo not shown) [compound 60, 2-[1-(3,4-Dichlorobenzyl)-piperidin-2-yl]-5-fluoro-1H-indole] | 5000 to 15000 nM
4 | COc1cccc(CN2CC(C)CCC2c2cc3cc(F)ccc3[nH]2)c1 (stereo not shown) [compound 62, 5-Fluoro-2-[1-(3-methoxy-benzyl)-5-methyl-piperidin-2-yl]-1H-indole] | 5000 to 15000 nM
5 | COc1ccc(CN2CCC(C)CC2c2cc3ccccc3[nH]2)cc1 (stereo not shown) [compound 68, 2-[1-(4-Methoxy-benzyl)-4-methyl-piperidin-2-yl]-1H-indole] | 500 to 5000 nM
6 | Cc1cc(C)c2cc(C3CCCCN3Cc3ccc(F)cc3)[nH]c2c1 (stereo not shown) [compound 69, 2-[1-(4-Fluoro-benzyl)-piperidin-2-yl]-4,6-dimethyl-1H-indole] | 500 to 5000 nM
7 | Cc1ccc2[nH]c(C3CCCCN3Cc3ccc(F)cc3)cc2c1 (stereo not shown) [compound 70] | 500 to 5000 nM
8 | COc1cccc(CN2CCCCC2c2cc3cc(C)ccc3[nH]2)c1 (stereo not shown) [compound 71, 2-[1-(3-Methoxy-benzyl)-piperidin-2-yl]-5-methyl-1H-indole] | 500 to 5000 nM
9 | COc1cccc(CN2CCC(C)CC2c2cc3cc(Cl)ccc3[nH]2)c1 (stereo not shown) [compound 74, 5-Chloro-2-[1-(3-methoxy-benzyl)-4-methyl-piperidin-2-yl]-1H-indole] | 500 to 5000 nM
10 | COc1ccc(CN2CCCC(C)C2c2cc3c4c(ccc3[nH]2)CCC4)cc1 (stereo not shown) [compound 76, 2-[1-(4-Methoxy-benzyl)-3-methyl-piperidin-2-yl]-3,6,7,8-tetrahydro-cyclopenta [e]indole] | 5000 to 15000 nM
11 | Cc1ccc(CN2CCC(C)CC2c2cc3ccccc3[nH]2)cc1C (stereo not shown) [compound 79, 2-[1-(3,4-Dimethyl-benzyl)-4-methyl-piperidin-2-yl]-1H-indole] | 500 to 5000 nM
12 | CC1CCCN(Cc2ccc(F)cc2)C1c1cc2ccccc2[nH]1 (stereo not shown) [compound 81, 2-[1-(4-Fluoro-benzyl)-3-methyl-piperidin-2-yl]-1H-indole] | 500 to 5000 nM
13 | COc1ccc2[nH]c(C3CC(C)CCN3Cc3ccc(C)c(C)c3)cc2c1 (stereo not shown) [compound 83, 2-[1-(3,4-Dimethyl-benzyl)-4-methyl-piperidin-2-yl]-5-methoxy-1H-indole] | 500 to 5000 nM
14 | N#Cc1cccc(CN2CCCCC2c2cc3cc(F)ccc3[nH]2)c1 (stereo not shown) [compound 86, 3-[2-(5-Fluoro-1H-indol-2-yl)-piperidin-1-ylmethyl]-benzonitrile] | 500 to 5000 nM
15 | FC(F)(F)c1cccc(CN2CCCCC2c2nc3ccc(Cl)cc3[nH]2)c1 (stereo not shown) [compound 89] | 500 to 5000 nM

More lines, now with the values ahead:

Row | IC50 | SMILES
16 | < 500 nM | Fc1ccc(CN2CCCCC2c2nc3cc(F)ccc3[nH]2)cc1 (stereo not shown) [compound 49, 5-Fluoro-2-[1-(4-fluoro-benzyl)-piperidin-2-yl]-1H-benzo-imidazole]
17 | 500 to 5000 nM | Cc1ccc(CN2CCCCC2c2cc3ccccc3o2)cc1C (stereo not shown) [compound 50, 2-Benzofuran-2-yl-1-(3,4-dimethyl-benzyl)-piperidine]
18 | < 500 nM | Cc1ccc(CN2CCCCC2c2nc3cc(F)ccc3[nH]2)cc1C (stereo not shown) [compound 51, 2-[1-(3,4-Dimethyl-benzyl)-piperidin-2-yl]-5-fluoro-1H-benzo-imidazole]
19 | 500 to 5000 nM | Fc1ccc2[nH]c(C3CCCCN3Cc3cccc(Cl)c3Cl)cc2c1 (stereo not shown) [compound 54, 2-[1-(2,3-Dichloro-benzyl)-piperidin-2-yl]-5-fluoro-1H-indole]
20 | 500 to 5000 nM | COc1cc(CN2CCCCC2c2cc3cc(F)ccc3[nH]2)cc(OC)c1 (stereo not shown) [compound 55, 2-[1-(3,5-Dimethoxy-benzyl)-piperidin-2-yl]-5-fluoro-1H-indole]
21 | 500 to 5000 nM | Fc1ccc2[nH]c(C3CCCCN3Cc3ccccn3)cc2c1 (stereo not shown) [compound 56, 5-Fluoro-2-(1-pyridin-2-ylmethyl-piperidin-2-yl)-1H-indole]
22 | 500 to 5000 nM | Fc1ccc2[nH]c(C3CCCCN3Cc3cccc(Br)c3)cc2c1 (stereo not shown) [compound 57, 2-[1-(3-Bromo-benzyl)-piperidin-2-yl]-5-fluoro-1H-indole]
23 | 500 to 5000 nM | Fc1ccc2[nH]c(C3CCCCN3Cc3ccc(Br)cc3)cc2c1 (stereo not shown) [compound 58, 2-[1-(4-Bromo-benzyl)-piperidin-2-yl]-5-fluoro-1H-indole]
24 | 500 to 5000 nM | CC1CCC(c2cc3cc(F)ccc3[nH]2)N(Cc2ccc(F)cc2)C1 (stereo not shown) [compound 61, 5-Fluoro-2-[1-(4-fluoro-benzyl)-5-methyl-piperidin-2-yl]-1H-indole]
25 | 500 to 5000 nM | Fc1ccc2[nH]c(C3CCCCN3Cc3c[nH]c4ccccc34)cc2c1 (stereo not shown) [compound 63, 5-Fluoro-2-[1-(1H-indol-3-ylmethyl)-piperidin-2-yl]-1H-indole]
26 | 500 to 5000 nM | COc1ccc(CN2CCC(C)CC2c2cc3cc(F)ccc3[nH]2)cc1 (stereo not shown) [compound 64, 5-Fluoro-2-[1-(4-methoxy-benzyl)-4-methyl-piperidin-2-yl]-1H-indole]
27 | 500 to 5000 nM | Cc1ccc2c(c1)c(CN1CCCCC1c1cc3cc(F)ccc3[nH]1)cn2C (stereo not shown) [compound 65, 3-[2-(5-Fluoro-1H-indol-2-yl)-piperidin-1-ylmethyl]-1,5-dimethyl-1H-indole]
28 | 500 to 5000 nM | Cc1ccc2c(CN3CCCCC3c3cc4cc(F)ccc4[nH]3)cn(C)c2c1 (stereo not shown) [compound 66, 3-[2-(5-Fluoro-1H-indol-2-yl)-piperidin-1-ylmethyl]-1,6-dimethyl-1H-indole]
29 | 500 to 5000 nM | Brc1ccc(CN2CCCCC2c2cc3ccccc3[nH]2)cc1 (stereo not shown) [compound 67, 2-[1-(4-Bromo-benzyl)-piperidin-2-yl]-1H-indole]
30 | < 500 nM | CC(c1ccc(F)cc1)N1CCCCC1c1cc2cc(F)ccc2[nH]1 (stereo not shown) [compound 72, 5-Fluoro-2-{1-[1-(4-fluoro-phenyl)-ethyl]-piperidin-2-yl}-1H-indole]
31 | < 500 nM | COc1ccc(CN2CCCCC2c2cc3cc(Cl)ccc3[nH]2)cc1 (stereo not shown) [compound 73, 5-Chloro-2-[1-(4-methoxy-benzyl)-piperidin-2-yl]-1H-indole]
32 | < 500 nM | Cc1c(C2CCCCN2Cc2ccc(F)cc2)[nH]c2ccc(F)cc12 (stereo not shown) [compound 75, 5-Fluoro-2-[1-(4-fluoro-benzyl)-piperidin-2-yl]-3-methyl-1H-indole]
33 | < 500 nM | COc1cccc(CN2CCCCC2c2cc3cc(OC)ccc3[nH]2)c1 (stereo not shown) [compound 82, 5-Methoxy-2-[1-(3-methoxy-benzyl)-piperidin-2-yl]-1H-indole]
34 | < 500 nM | Cc1cc(C)cc(CN2CCCCC2c2cc3cc(F)ccc3[nH]2)c1 (stereo not shown) [compound 84, 2-[1-(3,5-Dimethyl-benzyl)-piperidin-2-yl]-5-fluoro-1H-indole]
35 | < 500 nM | CCc1nc(CN2CCCCC2c2cc3cc(F)ccc3[nH]2)cs1 (stereo not shown) [compound 85]
36 | < 500 nM | Cc1ccc(CN2CCC(C)CC2c2cc3cc(F)ccc3[nH]2)cc1C (stereo not shown) [compound 87, 2-[1-(3,4-Dimethyl-benzyl)-4-methyl-piperidin-2-yl]-5-fluoro-1H-indole]
37 | < 500 nM | Cc1ccc(CN2CCCCC2c2nc3ccc(Cl)cc3[nH]2)cc1C (stereo not shown) [compound 88, 6-Chloro-2-[1-(3,4-dimethyl-benzyl)-piperidin-2-yl]-1H-benzo-imidazole]
